| melting point | SMILES |
| --- | --- |
| 237 to 242.5 °C | Nc1nc(Nc2ccc(S(N)(=O)=O)cc2)nn1C(=O)c1ccccc1Cl [Compound #2, N^3-[(4-aminosulfonyl)phenyl]-1-(2′-chlorobenzoyl)-1H-1,2,4-triazole-3,5-diamine] |
| 217 to 221.5 °C | COc1ccccc1C(=O)n1nc(Nc2ccc(S(N)(=O)=O)cc2)nc1N [Compound #3, N^3-[(4-aminosulfonyl)phenyl]-1-(2′-methoxybenzoyl)-1H-1,2,4-triazole-3 5-diamine] |
| 246 to 248 °C | Nc1nc(Nc2ccc(S(N)(=O)=O)cc2)nn1C(=O)c1ccccc1Br [Compound #4, N^3-[(4-aminosulfonyl)phenyl]-1-(2′-bromobenzoyl)-1H-1,2,4-triazole-3,5-diamine] |
| 260 to 262 °C | Nc1nc(Nc2ccc(S(N)(=O)=O)cc2)nn1C(=O)c1cccc([N+](=O)[O-])c1 [Compound #5, N^3-[(4-aminosulfonyl)phenyl]-1-(3′-nitrobenzoyl)-1H-1,2,4-triazole-3,5-diamine] |
| 251 to 253 °C | Nc1nc(Nc2ccc(S(N)(=O)=O)cc2)nn1C(=O)c1cccc(C(F)(F)F)c1 [Compound #6, N^3-[(4-aminosulfonyl)phenyl]-1-[3′-(trifluoromethyl)benzoyl]-1H-1,2,4-triazole-3,5-diamine] |
| 242 to 244 °C | Nc1nc(Nc2ccc(S(N)(=O)=O)cc2)nn1C(=O)c1cccc(Br)c1 [Compound #7, N^3-[(4-aminosulfonyl)phenyl]-1-(3′-bromobenzoyl)-1H-1,2,4-triazole-3,5-diamine] |
| 336 to 338 °C | Nc1nc(Nc2ccc(S(N)(=O)=O)cc2)nn1C(=O)c1ccc([N+](=O)[O-])cc1 [Compound #9, N^3-[(4-aminosulfonyl)phenyl]-1-(4′-nitrobenzoyl)-1H-1,2,4-triazole-3,5-diamine] |
| > 300 °C | Nc1nc(Nc2ccc(S(N)(=O)=O)cc2)nn1C(=O)c1ccc(O)cc1 [Compound #10, N^3-[(4-aminosulfonyl)phenyl]-1-(4′-hydroxybenzoyl)-1H-1,2,4-triazole-3,5-diamine] |
| 244.5 to 247.5 °C | COc1ccc(C(=O)n2nc(Nc3ccc(S(N)(=O)=O)cc3)nc2N)cc1 [Compound #12, N^3-[(4-aminosulfonyl)phenyl]-1-(4′-methoxybenzoyl)-1H-1,2,4-triazole-3,5-diamine] |
| 334 to 336 °C | CC(=O)n1nc(Nc2ccc(S(N)(=O)=O)cc2)nc1N [Compound #16, N^3-[(4-aminosulfonyl)phenyl]-1-acetyl-1H-1,2,4-triazole-3,5-diamine] |
| > 300 °C | Nc1nc(Nc2ccc(S(N)(=O)=O)cc2)nn1C(=O)c1ccco1 [Compound #17, N^3-[(4-aminosulfonyl)phenyl]-1-(2′-furoyl)-1H-1,2,4-triazole-3,5-diamine] |
| 222.5 to 224 °C | Cc1ccc(C(=O)n2nc(Nc3ccccc3)nc2N)cc1 [Compound #25, N^3-phenyl-1-(4′-methylbenzoyl)-1,2,4-triazole-3,5-diamine] |
| > 260 °C | Nc1nc(Nc2ccc(S(N)(=O)=O)cc2)nn1C(=O)c1ccc(Cl)cc1 [Compound #28, N^3-[(4-aminosulfonyl)phenyl]-1-(4′-chlorobenzoyl)-1H-1,2,4-triazole-3,5-diamine] |
| 89.5 to 94 °C | COc1ccccc1C(=O)n1nc(Nc2ccccc2)nc1N [Compound #29, N^3-phenyl-1-(2′methoxybenzoyl)-1,2,4-triazole-3,5-diamine] |
| 174 to 184 °C | COc1cccc(C(=O)n2nc(Nc3ccccc3)nc2N)c1 [Compound #30, N^3-phenyl-1-(3′-methoxybenzoyl)-1,2,4-triazole-3,5-diamine] |
| 201 to 202 °C | Nc1nc(Nc2ccccc2)nn1C(=O)c1ccco1 [Compound #31, N^3-phenyl-1-(2-furoyl)-1,2,4-triazole-3,5-diamine] |

— patent US20060100259A1, “Process for the preparation of substituted triazole compounds” (priority 2004, published 2006)
